Reference: patent US20250313563A1, “GLYCOGEN SYNTHASE KINASE 3 INHIBITORS AND USES THEREOF” (The Broad Institute, Inc., priority 2022, published 2025)
Where two headings read alike, the source gives them in different places.

Experiments:
[1] = biological target: GSK3α (GST-full length GSK3α) (Homo sapiens (Human), UniProt P49840); assay: GSK3α TR-FRET kinase assay; assay type: biochemical
In short: (§1)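 IC50s came from the normalized 665/615 TR-FRET ratio after Tb-anti-pSer641 antibody and streptavidin-d2 detection of phosphorylated biotin-glycogen synthase peptide (200 nM). ATP was 4 μM for GSK3α, 2 μM for GSK3b, or 1 mM; 1 nM enzyme, 100 min, ambient, pH 7.5, after 30-min compound preincubation.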

[2] = biological target: GSK3b (GST-full length GSK3b) (Homo sapiens (Human), UniProt P49841); assay: GSK3b TR-FRET kinase assay; assay type: biochemical
GSK3b (GST-full length GSK3b), sequence (P49841 whole entry): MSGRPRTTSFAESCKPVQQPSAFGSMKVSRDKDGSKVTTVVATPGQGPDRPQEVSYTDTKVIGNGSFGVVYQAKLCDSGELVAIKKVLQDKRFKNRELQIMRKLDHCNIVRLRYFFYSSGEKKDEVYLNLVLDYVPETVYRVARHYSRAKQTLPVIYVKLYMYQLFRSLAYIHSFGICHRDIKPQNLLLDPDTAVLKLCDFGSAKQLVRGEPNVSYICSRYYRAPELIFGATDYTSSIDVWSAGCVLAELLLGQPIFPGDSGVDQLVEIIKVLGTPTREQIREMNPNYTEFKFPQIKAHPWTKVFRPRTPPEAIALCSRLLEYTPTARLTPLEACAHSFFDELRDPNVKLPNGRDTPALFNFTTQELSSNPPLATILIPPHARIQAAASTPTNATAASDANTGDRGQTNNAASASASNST
In short: as §1

[3] = 1 nM GSK3α, 4 μM ATP, 30 minute preincubation, geometric mean, read-out: GSK3-A TR-FRET BIOCHEMICAL (TR-FRET), GMean, IC50
[4] = 1 nM GSK3b, 2 μM ATP, 30 minute preincubation, geometric mean, read-out: GSK3-B TR-FRET BIOCHEMICAL (TR-FRET), GMean, IC50
[5] = 1 nM GSK3α, 4 μM ATP, 30 minute preincubation, read-out: GSK3-A TR-FRET BIOCHEMICAL (TR-FRET), IC50
[6] = GSK3-A (TR-FRET 1 mM ATP), GMean, IC50, 1 mM ATP, geometric mean
[7] = 1 nM GSK3b, 2 μM ATP, 30 minute preincubation, read-out: GSK3-B TR-FRET BIOCHEMICAL (TR-FRET), IC50
[8] = GSK3-B (TR-FRET 1 mM ATP), GMean, IC50, 1 mM ATP, geometric mean
[9] = read-out: GSK3-A (TR-FRET 1 mM ATP), GMean, IC50, 1 mM ATP, geometric mean
[10] = read-out: GSK3-B (TR-FRET 1 mM ATP), GMean, IC50, 1 mM ATP, geometric mean
[11] = 1 nM GSK3α, 4 μM ATP, 30 minute preincubation, Table 16, read-out: GSK3-A TR-FRET BIOCHEMICAL (TR-FRET)
[12] = 1 nM GSK3b, 2 μM ATP, 30 minute preincubation, Table 16, read-out: GSK3-B TR-FRET BIOCHEMICAL (TR-FRET)

GSK3α (GST-full length GSK3α), sequence (P49840 whole entry): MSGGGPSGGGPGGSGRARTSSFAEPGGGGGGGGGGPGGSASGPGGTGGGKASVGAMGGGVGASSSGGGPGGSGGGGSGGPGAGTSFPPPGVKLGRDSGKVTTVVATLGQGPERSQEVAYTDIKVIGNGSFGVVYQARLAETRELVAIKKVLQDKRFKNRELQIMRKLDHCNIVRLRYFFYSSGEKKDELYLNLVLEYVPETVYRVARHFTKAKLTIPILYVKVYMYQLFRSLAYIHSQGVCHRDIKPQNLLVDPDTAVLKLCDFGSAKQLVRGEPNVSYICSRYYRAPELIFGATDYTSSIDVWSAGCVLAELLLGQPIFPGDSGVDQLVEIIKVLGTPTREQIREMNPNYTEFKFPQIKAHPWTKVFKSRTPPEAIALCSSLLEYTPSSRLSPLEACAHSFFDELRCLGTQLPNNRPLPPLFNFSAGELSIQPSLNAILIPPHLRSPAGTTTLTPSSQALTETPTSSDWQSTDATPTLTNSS

SMILES | IC50 [1, 3] | IC50 [2, 4] | also measured
CC[C@@]1(c2cccc(S(C)(=O)=O)c2)C2=C(CC(C)(C)NC2=O)Nc2n[nH]c(C(F)(F)F)c21 [Compound 948422] | 100 to 1000 nM | 100 to 1000 nM | –
CC[C@@]1(c2cccc(S(=O)(=O)C(C)C)c2)C2=C(CC(C)(C)NC2=O)Nc2n[nH]c(C(F)(F)F)c21 [Compound 948423] | ≤ 100 nM | 100 to 1000 nM | –
CC(=O)N1C[C@]2(C[C@]3(CO2)C2=C(CC(C)(C)CC2=O)Nc2n[nH]cc23)[C@H]1C [Compound 948437] | – | – | IC50 [1, 5]: ≤ 100 nM; IC50 [1, 6]: ≤ 100 nM; IC50 [2, 7]: ≤ 100 nM; IC50 [2, 8]: ≤ 100 nM
CC(=O)N1C[C@@]2(C[C@]3(CO2)C2=C(CC(C)(C)CC2=O)Nc2n[nH]cc23)[C@@H]1C [Compound 948438] | – | – | IC50 [1, 5]: ≤ 100 nM; IC50 [2, 7]: ≤ 100 nM
CC(=O)N1C[C@]2(C[C@@]3(CO2)C2=C(CC(C)(C)CC2=O)Nc2n[nH]cc23)[C@H]1C [Compound 948439] | – | – | IC50 [1, 5]: ≤ 100 nM; IC50 [1, 6]: ≤ 100 nM; IC50 [2, 7]: ≤ 100 nM; IC50 [2, 8]: ≤ 100 nM
CC(=O)N1C[C@@]2(C[C@@]3(CO2)C2=C(CC(C)(C)CC2=O)Nc2n[nH]cc23)[C@@H]1C [Compound 948440] | – | – | IC50 [1, 5]: ≤ 100 nM; IC50 [2, 7]: ≤ 100 nM
CCC1(c2cccc(-c3ccnc(C)c3)c2)C2=C(CC(C)(COC)NC2=O)Nc2n[nH]cc21 (stereo not drawn) [Compound 948493] | > 5000 nM | > 5000 nM | –
CC[C@]1(c2cccc(-c3ccncc3C)c2)C2=C(CC3(CCC3)NC2=O)Nc2n[nH]cc21 [Compound 948512] | ≤ 100 nM | ≤ 100 nM | IC50 [1, 9]: 100 to 1000 nM; IC50 [2, 10]: 1000 to 5000 nM
CC[C@]1(c2cccc(-c3ccnc(C)c3)c2)C2=C(CC3(CCOCC3)NC2=O)Nc2n[nH]c(C)c21 [Compound 948513] | ≤ 100 nM | 100 to 1000 nM | –
CCC1(c2cccc(-c3c(F)cncc3F)c2)C2=C(CC(C)(C)NC2=O)Nc2n[nH]cc21 (stereo not drawn) [Compound 948514] | 1000 to 5000 nM | > 5000 nM | –
CCC1(c2cccc(-c3c(Cl)cncc3Cl)c2)C2=C(CC(C)(C)NC2=O)Nc2n[nH]cc21 (stereo not drawn) [Compound 948515] | ≤ 100 nM | ≤ 100 nM | IC50 [1, 9]: ≤ 100 nM; IC50 [2, 10]: 100 to 1000 nM
CCC1(c2cccc(-c3ccnn3C)c2)C2=C(CC3(CCOCC3)NC2=O)Nc2n[nH]cc21 (stereo not drawn) [Compound 948516] | ≤ 100 nM | 100 to 1000 nM | –
CC[C@]1(c2cccc(-c3ccnc4ccc(Cl)cc34)c2)C2=C(CC(C)(C)N(C)C2=O)Nc2n[nH]cc21 [Compound 948517] | ≤ 100 nM | ≤ 100 nM | –
CC[C@@]1(c2cccc(-c3ccnc4ccc(OC)cc34)c2)C2=C(CC(C)(C)NC2=O)Nc2n[nH]cc21 [Compound 948518] | > 5000 nM | > 5000 nM | –
CC[C@@]1(c2cccc(-c3ccnc4cc(F)ccc34)c2)C2=C(CC(C)(C)NC2=O)Nc2n[nH]cc21 [Compound 948519] | > 5000 nM | > 5000 nM | –
CCC1(c2cccc(-c3ccnc(OC)c3F)c2)C2=C(CC(C)(C)NC2=O)Nc2n[nH]cc21 (stereo not drawn) [Compound 948520] | 100 to 1000 nM | 1000 to 5000 nM | –
CCC1(c2cccc(-c3ccnc(C)c3)c2)C2=C(CC(C)(COC)NC2=O)Nc2n[nH]cc21 (stereo not drawn) [Compound 948521] | ≤ 100 nM | 1000 to 5000 nM | –
CCC1(c2cccc(-c3ccnn3C)c2)C2=C(CC3(CCC3)NC2=O)Nc2n[nH]cc21 (stereo not drawn) [Compound 948522] | 100 to 1000 nM | > 5000 nM | –
CCC1(c2cccc(-c3ccncc3C)c2)C2=C(CC3(CCC3)NC2=O)Nc2n[nH]cc21 (stereo not drawn) [Compound 948523] | ≤ 100 nM | 100 to 1000 nM | –
CCC1(c2cccc(-c3ccnc(C)c3)c2)C2=C(CC3(CCOCC3)NC2=O)Nc2n[nH]cc21 (stereo not drawn) [Compound 948524] | 1000 to 5000 nM | > 5000 nM | –
CC[C@]1(c2cccc(-c3ccnn3C)c2)C2=C(CC3(CCOCC3)NC2=O)Nc2n[nH]cc21 [Compound 948526] | 1000 to 5000 nM | > 5000 nM | –
CC[C@]1(c2cccc(-c3ccnc4cc(F)ccc34)c2)C2=C(CC(C)(C)NC2=O)Nc2n[nH]cc21 [Compound 948528] | ≤ 100 nM | 100 to 1000 nM | –
CCC1(c2cccc(-c3c(F)cncc3OC)c2)C2=C(Nc3n[nH]cc31)C(F)C(C)(C)CC2=O (stereo not drawn) [Compound 948545, 4-ethyl-8-fluoro-4-(3-(3-fluoro-5-methoxypyridin-4-yl)phenyl)-7,7-dimethyl-2,4,6,7,8,9-hexahydro-SH-pyrazolo[3,4-b]quinolin-5-one] | – | – | IC50 [1, 11]: ≤ 100 nM; IC50 [1, 9]: ≤ 100 nM; IC50 [2, 12]: ≤ 100 nM; IC50 [2, 10]: 100 to 1000 nM

SMILES | IC50 [1, 3] | IC50 [2, 4] | also measured
CCC1(c2cccc(-c3c(F)cncc3OC)c2)C2=C(Nc3n[nH]cc31)C(F)C(C)(C)CC2=O (stereo not drawn) [Compound 948547, 4-ethyl-8-fluoro-4-(3-(3-fluoro-5-methoxypyridin-4-yl)phenyl)-7,7-dimethyl-2,4,6,7,8,9-hexahydro-SH-pyrazolo[3,4-b]quinolin-5-one] | – | – | IC50 [1, 11]: ≤ 100 nM; IC50 [1, 9]: 100 to 1000 nM; IC50 [2, 12]: ≤ 100 nM; IC50 [2, 10]: 1000 to 5000 nM
CCC1(c2cccc(-c3c(F)cncc3OC)c2)C2=C(Nc3n[nH]cc31)C(F)C(C)(C)CC2=O (stereo not drawn) [Compound 948548, 4-ethyl-8-fluoro-4-(3-(3-fluoro-5-methoxypyridin-4-yl)phenyl)-7,7-dimethyl-2,4,6,7,8,9-hexahydro-SH-pyrazolo[3,4-b]quinolin-5-one] | – | – | IC50 [1, 11]: ≤ 100 nM; IC50 [2, 12]: 100 to 1000 nM
CCC1(c2cccc(-c3c(F)cncc3OC)c2)C2=C(CN(Cc3ccccc3)C2=O)Nc2n[nH]cc21 (stereo not drawn) [Compound 948550] | – | – | IC50 [1, 5]: ≤ 100 nM; IC50 [2, 7]: 100 to 1000 nM
CCC1(c2cccc(-c3ccnc4c3CCCC4)c2)C2=C(CN(Cc3ccccc3)C2=O)Nc2n[nH]cc21 (stereo not drawn) [Compound 948551] | – | – | IC50 [1, 5]: ≤ 100 nM; IC50 [2, 7]: 100 to 1000 nM
CC[C@]1(c2cccc(-c3ccnc4c3CCCC4)c2)C2=C(CN(Cc3ccccc3)C2=O)Nc2n[nH]cc21 [Compound 948552] | – | – | IC50 [1, 5]: 100 to 1000 nM; IC50 [2, 7]: > 5000 nM
CCC1(c2cccc(C(F)(F)C(F)(F)F)c2)C2=C(CC(C)(C)CC2=O)Nc2n[nH]cc21 (stereo not drawn) [Compound 948615] | – | – | IC50 [1, 11]: ≤ 100 nM; IC50 [2, 12]: ≤ 100 nM
CCC1(c2cccc(-c3ccnc4cc(F)c(F)cc34)c2)C2=C(CC(C)(C)NC2=O)Nc2n[nH]cc21 (stereo not drawn) [Compound 948638] | > 5000 nM | > 5000 nM | –
CCc1cnccc1-c1cccc([C@]2(CC)C3=C(CC(C)(C)NC3=O)Nc3n[nH]cc32)c1 [Compound 948639] | ≤ 100 nM | 100 to 1000 nM | –
CCC1(c2cccc(-c3ccnc(C)c3)c2)C2=C(CC3(CCCC3)NC2=O)Nc2n[nH]cc21 (stereo not drawn) [Compound 948641] | > 5000 nM | > 5000 nM | –
CC[C@@]1(c2cccc(-c3ccncc3C3CC3)c2)C2=C(CC(C)(C)NC2=O)Nc2n[nH]cc21 [Compound 948642] | 100 to 1000 nM | 1000 to 5000 nM | –
CC[C@@]1(c2cccc(-c3ccncc3OC3CC3)c2)C2=C(CC(C)(C)NC2=O)Nc2n[nH]cc21 [Compound 948643] | > 5000 nM | > 5000 nM | –
CC[C@@]1(c2cccc(-c3ccnc4cc(Cl)c(C)cc34)c2)C2=C(CC(C)(C)NC2=O)Nc2n[nH]cc21 [Compound 948645] | 100 to 1000 nM | > 5000 nM | –
CC[C@@]1(c2cccc(-c3cc(OC)nc4ccccc34)c2)C2=C(CC(C)(C)NC2=O)Nc2n[nH]cc21 [Compound 948647] | > 5000 nM | > 5000 nM | –
CCC1(c2cccc(-c3ccncc3C)c2)C2=C(CC3(CCOC3)NC2=O)Nc2n[nH]cc21 (stereo not drawn) [Compound 948648] | > 5000 nM | > 5000 nM | –
CCC1(c2cccc(-c3ccnc4cc(OC)ccc34)c2)C2=C(CC(C)(C)NC2=O)Nc2n[nH]cc21 (stereo not drawn) [Compound 948649] | > 5000 nM | > 5000 nM | –
CC[C@@]1(c2cccc(-c3ccnc4c(Cl)cccc34)c2)C2=C(CC(C)(C)NC2=O)Nc2n[nH]cc21 [Compound 948650] | > 5000 nM | > 5000 nM | –
CCC1(c2cccc(-c3ccnc4ccc(C)cc34)c2)C2=C(CC(C)(C)NC2=O)Nc2n[nH]cc21 (stereo not drawn) [Compound 948651] | > 5000 nM | > 5000 nM | –
CCC1(c2cccc(-c3ccnc(N4CCOCC4)c3)c2)C2=C(CC(C)(C)NC2=O)Nc2n[nH]cc21 (stereo not drawn) [Compound 948653] | ≤ 100 nM | ≤ 100 nM | –
CCC1(c2cccc(-c3ccnc4cc(Cl)c(C)cc34)c2)C2=C(CC(C)(C)NC2=O)Nc2n[nH]cc21 (stereo not drawn) [Compound 948654] | > 5000 nM | > 5000 nM | –
CCC1(c2cccc(-c3ccncc3OC3CC3)c2)C2=C(CC(C)(C)NC2=O)Nc2n[nH]cc21 (stereo not drawn) [Compound 948656] | > 5000 nM | > 5000 nM | –
CCc1cnccc1-c1cccc(C2(CC)C3=C(CC(C)(C)NC3=O)Nc3n[nH]cc32)c1 (stereo not drawn) [Compound 948657] | > 5000 nM | > 5000 nM | –
CC[C@@]1(c2cccc(-c3ccnc4ccc(C)cc34)c2)C2=C(CC(C)(C)NC2=O)Nc2n[nH]cc21 [Compound 948658] | > 5000 nM | > 5000 nM | –
